Source: US8518916B2, “Heterocyclic derivatives as M-GLU5 antagonists” (Recordati Ireland Limited, priority 2007, dated 2013)

Columns and labels:
mGlu5 receptor = molecular target: T1, mGlu5 receptor (Rattus norvegicus, UniProt P31424); assay: Radioligand binding assay ([3H]MPEP) at metabotropic glutamate receptor 5 in rat brain; conditions: rat forebrain membranes, 4 nM [3H]MPEP; read-out: affinity (Ki) for mGlu5 receptor
T1 construct: from tissue; host or cells: forebrain (cortex, striatum and hippocampus) of male Sprague Dawley rats
Procedure: Radioligand Binding Assay at metabotropic glutamate receptor 5 in rat brain.
a) Membrane preparation: male Sprague Dawley rats (200-300 g, Charles River, Italy) were killed by cervical dislocation and the forebrain (cortex, striatum and hippocampus) was homogenized (2×20 sec) in 50 vols of cold 50 mM Tris buffer pH 7.4, using a Politron homogenizer (Kinematica). Homogenates were centrifuged at 48000×g for 15 min, resuspended in 50 vols of the same buffer, incubated at 37° C. for 15 min and centrifuged and resuspended two more times. The final pellets were frozen and stored at −80° C. until use.
b) Binding assay: pellets from rat forebrain were resuspended in 100 vols of 20 mM HEPES, 2 mM MgCl2, 2 mM CaCl2, pH 7.4. The membranes were incubated in a final volume of 1 ml for 60 min at 25° C. with 4 nM [^3H]MPEP in the absence or presence of competing drugs. Non-specific binding was determined in the presence of 10 μM MPEP (Spooren W. et al., Trends Pharmacol Sci. 22, 331-337, 2001). The incubation was stopped by the addition of cold Tris buffer pH 7.4 and rapid filtration through 0.5% polyethyleneimine pretreated Filtermat 1204-401 (Wallac) filters. The filters were then washed with cold buffer and the radioactivity retained on the filters was counted by liquid scintillation spectrometry. […]

conscious rats = assay: Cystometry in conscious rats (bladder volume capacity); assay type: in vivo, rat; conditions: for effect on bladder volume capacity: 1-3 h after treatment; for "In vivo" cystometry MED (Minimal Effective Dose that induces statistically significant increase of bladder volume capacity): oral
Procedure: Male Sprague-Dawley rats [Crl: CD® (SD) IGS BR] of 300-400 g b.w. supplied by Charles River Italia were used. The animals were housed with free access to food and water and maintained on a forced 12-hour-light/12-hour-dark cycle at 22-24° C. of temperature, except during the experiment. To quantify urodynamic parameters in conscious rats, cystometrographic studies were performed according to the procedure previously reported (Guarneri et al., Pharmacol. Res. 24: 175, 1991).
Briefly, the rats were anaesthetised by intraperitoneal administration of 3 ml/kg of Equithensin solution (pentobarbital 30 mg/kg and chloral hydrate 125 mg/kg) and placed in a supine position. An approximately 10 mm long midline incision was made in the shaved and cleaned abdominal wall. The urinary bladder was gently freed from adhering tissues, emptied and then cannulated via an incision in the bladder body, using a polyethylene cannula (0.58 mm internal diameter, 0.96 mm external diameter) which was permanently sutured with silk thread. The cannula was exteriorised through a subcutaneous tunnel in the retroscapular area, where it was connected to a plastic adapter in order to avoid the risk of removal by the animal. For drug testing, the rats were utilised one day after implantation.
On the day of the experiment, the rats were placed in modified Bollman cages, i.e., restraining cages that were large enough to permit the rats to adopt a normal crouched posture, but narrow enough to prevent turning around. After a stabilisation period of about 20 minutes, the free tip of the bladder cannula was connected through a T-shaped tube to a pressure transducer (Statham P23XL) and to a peristaltic pump (Gilson Minipuls 2) for continuous infusion of a warm (37° C.) saline solution into the urinary bladder, at a constant rate of 0.1 ml/minute. The intraluminal-pressure signal during infusion of saline into the bladder (cystometrogram) was continuously recorded on a polygraph (Rectigraph-8K San-ei with BM614/2 amplifier from Biomedica Mangoni) or stored on PC by data acquisition system (PowerLab, Chart 4 software, AD Instruments). From the cystometrogram, bladder volume capacity (BVC) was evaluated. BVC (in ml) is defined as the volume of saline infused into the bladder necessary to induce detrusor contraction followed by micturition. Basal BVC value was evaluated as the mean of the values observed in the cystometrograms recorded in an initial period of 30-60 minutes. At this point in the assay, the infusion was interrupted and the test compounds were administered orally by a stomach tube. The bladder infusion restarted and changes in BVC were evaluated from the mean values obtained in the cystometrograms observed during 1, 2, and 3 hours after treatment. The compounds were administered in a volume of 2 ml/kg. Groups of control animals received the same amount of vehicle corresponding to a solution 0.5% methocel in water.
Under the given test conditions, measurement of BVC is equivalent to measurement of interval time between micturitions.
Each experimental group was composed of 4-11 animals. All data were expressed as mean±standard error. The percent change of BVC versus the basal value, as well as Δ value (difference in ml) of BVC (BVC at time “x” minus basal value), were also evaluated for each rat/time. In the figures, data are reported as % change versus the basal value.
Statistical analysis on BVC values, as well as on Δ values, was performed by S.A.S./STAT software, version 6.12. The difference between vehicle and active treatment effect was evaluated on Δ values of BVC, whereas the difference between the values at different times versus the basal values was evaluated on original BVC data.

T1 sequence (P31424 21-1203): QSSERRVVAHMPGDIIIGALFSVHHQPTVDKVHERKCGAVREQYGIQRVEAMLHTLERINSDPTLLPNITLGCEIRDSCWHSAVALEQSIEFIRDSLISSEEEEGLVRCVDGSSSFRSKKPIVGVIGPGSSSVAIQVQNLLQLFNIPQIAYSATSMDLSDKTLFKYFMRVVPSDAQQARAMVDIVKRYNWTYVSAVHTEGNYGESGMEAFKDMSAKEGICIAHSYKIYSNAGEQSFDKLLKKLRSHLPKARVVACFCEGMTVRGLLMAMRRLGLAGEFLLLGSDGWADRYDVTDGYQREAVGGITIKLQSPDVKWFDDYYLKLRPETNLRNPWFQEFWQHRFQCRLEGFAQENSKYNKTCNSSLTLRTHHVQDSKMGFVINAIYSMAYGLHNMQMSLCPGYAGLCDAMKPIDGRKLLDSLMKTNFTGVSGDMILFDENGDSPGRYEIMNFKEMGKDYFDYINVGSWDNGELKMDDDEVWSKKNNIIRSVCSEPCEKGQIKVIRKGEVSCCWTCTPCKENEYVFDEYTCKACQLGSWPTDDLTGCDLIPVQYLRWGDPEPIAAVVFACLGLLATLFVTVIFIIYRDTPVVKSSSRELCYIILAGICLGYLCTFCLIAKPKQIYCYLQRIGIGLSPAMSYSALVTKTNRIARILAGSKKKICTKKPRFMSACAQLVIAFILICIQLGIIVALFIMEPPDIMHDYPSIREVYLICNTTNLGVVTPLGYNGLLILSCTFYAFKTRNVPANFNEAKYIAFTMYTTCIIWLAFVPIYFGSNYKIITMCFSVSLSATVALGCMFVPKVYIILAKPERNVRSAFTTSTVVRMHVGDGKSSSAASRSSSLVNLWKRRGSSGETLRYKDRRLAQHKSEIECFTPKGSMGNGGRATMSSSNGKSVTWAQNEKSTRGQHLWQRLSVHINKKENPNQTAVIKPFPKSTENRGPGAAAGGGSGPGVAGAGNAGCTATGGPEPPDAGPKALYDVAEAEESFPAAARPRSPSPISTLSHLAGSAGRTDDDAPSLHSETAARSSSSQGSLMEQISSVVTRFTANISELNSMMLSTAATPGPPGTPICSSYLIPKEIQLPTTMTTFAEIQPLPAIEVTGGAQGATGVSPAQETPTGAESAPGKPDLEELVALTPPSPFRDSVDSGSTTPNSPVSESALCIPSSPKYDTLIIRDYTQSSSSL

Row | Compound | "In vivo" cystometry MED (Minimal Effective Dose that induces statistically significant increase of bladder volume capacity) (conscious rats) | further results
1 | Cc1cccc(C#CC=C2CCN(c3ncccc3[N+](=O)[O-])CC2)n1 [Example 1, 2-{4-[3-(6-Methylpyridin-2-yl)prop-2-ynylidene]piperidin-1-yl}-3-nitropyridine] | 3 mg/kg os | Ki (mGlu5 receptor): 0.37 nM; effect on bladder volume capacity (conscious rats; 1 mg/kg orally): proved effective in increasing the bladder volume capacity; effect on bladder volume capacity (conscious rats; 3 mg/kg orally): proved effective in increasing the bladder volume capacity
2 | Cc1cccc(C#CC=C2CCN(c3nc(C)ccc3[N+](=O)[O-])CC2)n1 [Example 5, 6-Methyl-2-[4-[3-(6-methylpyridin-2-yl)prop-2-ynylidene]piperidin-1-yl]-3-nitropyridine] | 0.1 mg/kg os | –
3 | COc1ccc([N+](=O)[O-])c(N2CCC(=CC#Cc3cccc(C)n3)CC2)n1 [Example 6, 6-Methoxy-2-{4-[3-(6-methylpyridin-2-yl)prop-2-ynylidene]piperidin-1-yl}-3-nitropyridine] | 1 mg/kg os | –
4 | O=[N+]([O-])c1cccnc1N1CCC(=CC#Cc2ccccn2)CC1 [Example 9, 3-Nitro-2-[4-(3-pyridin-2-ylprop-2-ynylidene)piperidin-1-yl]pyridine] | 1 mg/kg os | –
5 | O=[N+]([O-])c1cccnc1N1CCC(=CC#Cc2ccccc2)CC1 [Example 10, 3-Nitro-2-[4-(3-phenylprop-2-ynylidene)piperidin-1-yl]pyridine] | 1 mg/kg os | effect on bladder volume capacity (conscious rats; 0.3 mg/kg orally): slightly increased the bladder volume capacity (not statistical significant); effect on bladder volume capacity (conscious rats; 1 mg/kg orally): proved effective in increasing bladder volume capacity
6 | O=[N+]([O-])c1cccnc1N1CCC(=CC#Cc2ccc(F)nc2)CC1 [Example 35, 2-{4-[3-(6-Fluoropyridin-3-yl)prop-2-ynylidene]piperidin-1-yl}-3-nitropyridine] | 3 mg/kg os | –
7 | Cc1cccc(C#CC=C2CCN(c3ccccc3C#N)CC2)n1 [Example 43, 2-{4-[3-(6-Methylpyridin-2-yl)prop-2-ynylidene]piperidin-1-yl}benzonitrile] | 3 mg/kg os | –
8 | Cc1cccc(C#CC=C2CCN(c3ccc(F)cc3[N+](=O)[O-])CC2)n1 [Example 55, 2-{3-[1-(4-Fluoro-2-nitrophenyl)piperidin-4-ylidene]prop-1-ynyl}-6-methylpyridine] | 0.3 mg/kg os | –
9 | Cc1cccc(C#CC=C2CCN(c3ccc(C#N)cc3[N+](=O)[O-])CC2)n1 [Example 56, 4-{4-[3-(6-Methylpyridin-2-yl)prop-2-ynylidene]piperidin-1-yl}-3-nitrobenzonitrile] | 1 mg/kg os | –
10 | O=[N+]([O-])c1cccnc1N1CCC(=C(F)C#Cc2ccccc2)CC1 [Example 67, 2-[4-(1-Fluoro-3-phenylprop-2-yn-1-ylidene)piperidin-1-yl]-3-nitropyridine] | 1 mg/kg os | –
11 | O=[N+]([O-])c1cccnc1N1CCC(=CC#Cc2cc(F)cc(F)c2)CC1 [Example 202, 2-{4-[3-(3,5-Difluorophenyl)prop-2-yn-1-ylidene]piperidin-1-yl}-3-nitropyridine] | 3 mg/kg os | –
12 | O=[N+]([O-])c1cccnc1N1CCC(=CC#Cc2cccc(Br)c2)CC1 [Example 208, 2-{4-[3-(3-Bromophenyl)prop-2-yn-1-ylidene]piperidin-1-yl}-3-nitropyridine] | 0.3 mg/kg os | –
13 | Cc1nc(C#Cc2cccnc2)cs1 [MTEP, reference compound] | 3 mg/kg os | effect on bladder volume capacity (conscious rats; 1 mg/kg orally): only a slight increase of bladder volume capacity; effect on bladder volume capacity (conscious rats; 3 mg/kg orally): sustained increase
